Laboratory results as given in patent US20220073495A1 (priority 2020, published 2022).
pIC50: −log10 of the molar value. Read-outs that look alike come from different tables or passages of the source.

Columns and labels:
[1] = test system: A549 cells; settings: human
[2] = in vitro; settings: human
[3] = test system: A/WSN/33; test: microbe, parasite or virus in culture; format: cell-based, influenza virus
[4] = test system: A549 cells; test: MTT cytotoxicity assay
[5] = test system: M1 to M2 splicing; format: cell-based, influenza virus (WSN); settings: 1 μM or 2.5 μM, WSN MOI 2 for 8 h
[6] = test system: cellular RNAs; test: Cell fractionation and RNAseq of poly(A) RNA; format: cell-based, human; settings: 2.5 μM, 9 hours, cutoff 1.5-fold
[7] = test system: A/WSN/33 (H1N1); format: cell-based, influenza A virus
[8] = test system: HA mRNA; test: smRNA-FISH of HA mRNA in WSN-infected cells; format: cell-based, influenza virus (WSN); settings: 2.5 μM, WSN MOI 2 for 8 h
[9] = test system: viral proteins (M1, M2, NA, HA); format: cell-based, A/WSN33
[10] = test system: A/Panama/99 (H3N2); format: cell-based, influenza A virus
[11] = test system: NS mRNA; test: smRNA-FISH of NS mRNA in WSN-infected cells; format: cell-based, influenza virus (WSN); settings: 2.5 μM, WSN MOI 2 for 8 h
[12] = test system: A/WSN/33; format: cell-based, influenza virus
[13] = test system: NS1 to NS2 splicing; test: qPCR of relative ratio of NS2 to NS1 mRNAs; format: cell-based, influenza virus (WSN); settings: 1 μM or 2.5 μM, WSN MOI 2 for 8 h
[14] = test system: viral M mRNA; test: smRNA-FISH of M mRNA in WSN-infected cells; format: cell-based, influenza virus (WSN); settings: 2.5 μM, WSN MOI 2 for 8 h
[15] = test system: cellular ATP levels; test: Cellular ATP levels (CellTiter-Glo); format: cell-based; settings: 2.5 μM, 24 h
Method: FIG. 30 depicts cellular ATP levels measured in cells treated with 0.1% DMSO or 2.5 μM of compound 2 at 24 h. Four independent experiments were performed and each contained 6 technical replicates.
ATP was measured by luminescence using the CellTiter-Glo kit (Promega) according to the manufacturer's instructions.

[16] = test system: cellular GAPDH mRNA; test: smRNA-FISH of GAPDH mRNA in uninfected cells; format: cell-based, Human; settings: 2.5 μM
[17] = test system: bulk cellular poly(A) RNA; test: RNA-FISH of poly(A) RNA in uninfected cells; format: cell-based, Human; settings: 2.5 μM
[18] = test system: A/Vietnam/1203/04 (H5N1); format: cell-based, influenza A virus
[19] = test system: primary human bronchial epithelial cells (HBEC); test: Cell viability of primary human bronchial epithelial cells (CellTiter-Glo); format: cell-based; settings: 24 h
Method: FIG. 38 depicts compound 2 inhibiting influenza virus replication in primary human bronchial epithelial cells at non-toxic concentrations. […] (B) Cell viability was monitored at 24 h after treatment with 0.1% DMSO or compound 2 at the depicted concentrations using CellTiter-Glo. Three independent experiments were performed.

[20] = unidentified influenza virus, WSN, A549, 24 h, read-out: WSN IC50, A549 cells, A/WSN/33 MOI 0.01, 24 h post infection, NP-positive cells
[21] = unidentified influenza virus, WSN, A549, 24 h, read-out: WSN IC90, A549 cells, A/WSN/33 MOI 0.01, 24 h post infection, NP-positive cells

O=C(CSc1nc2ccccc2[nH]1)Nc1ccc(Br)cc1 [Compound 4]
24 h MTT CC10 [1]: >50 µM
CC50 [2]: > 50 µM
pIC50 [3, 20]: < 4.30
IC90 [3, 21]: > 50 µM

O=C(CSc1nc2ccccc2[nH]1)NCc1ccccc1 [Compound 9]
24 h MTT CC10 [1]: >50 µM
CC50 [2]: > 50 µM
pIC50 [3, 20]: < 4.30
IC90 [3, 21]: > 50 µM

Brc1ccc(CSc2nc3ccccc3[nH]2)nc1 [Compound 23]
24 h MTT CC10 [1]: 37.461 µM
CC50 [2]: > 50 µM
pIC50 [3, 20]: < 4.30
IC90 [3, 21]: > 50 µM

O=C(C[S+]([O-])c1nc2ccccc2[nH]1)Nc1ccc(Br)cn1 (centres unmarked) [Compound 7]
24 h MTT CC10 [1]: 31.074 µM
CC50 [2]: > 50 µM
pIC50 [3, 20]: 4.92
IC90 [3, 21]: > 50 µM

ivermectin [reference compound]
cytotoxicity (cell viability) ([4]; 48 h, MTT, concentrations used for compound 2): positive control for cytotoxicity

NC(=O)CSc1nc2ccccc2[nH]1 [Compound 5]
24 h MTT CC10 [1]: >50 µM
CC50 [2]: > 50 µM
pIC50 [3, 20]: < 4.30
IC90 [3, 21]: > 50 µM

Cc1ccc(NC(=O)CCc2nc3ccccc3o2)nc1 [Compound 15]
24 h MTT CC10 [1]: >50 µM
CC50 [1]: > 50 µM
pIC50 [3, 20]: 4.51
IC90 [3, 21]: > 50 µM

COc1ccc(C2C(CC(C)C(=O)Nc3ccc(Br)cn3)=Cc3ccccc32)cc1 (centres unmarked) [Compound 14]
24 h MTT CC10 [1]: 15.941 µM
CC50 [1]: > 50 µM
pIC50 [3, 20]: < 4.30
IC90 [3, 21]: > 50 µM

O=C(CSc1nc2cc(F)ccc2[nH]1)Nc1ccc(Br)cn1 [Compound 27]
24 h MTT CC10 [1]: 2.905 µM
CC50 [2]: > 50 µM
pIC50 [3, 20]: 4.79
IC90 [3, 21]: 18.2 µM

O=C(CSc1nc2ccccc2[nH]1)NC1CCCCC1 [Compound 10]
24 h MTT CC10 [1]: >50 µM
CC50 [2]: > 50 µM
pIC50 [3, 20]: < 4.30
IC90 [3, 21]: > 50 µM

O=C(CSc1nc2ccccc2[nH]1)Nc1ccc(Br)cn1 [Compound 2, 2-((1H-benzo[d]imidazol-2-yl)thio)-N-(5-bromopyridin-2-yl)acetamide]
M1 to M2 splicing (relative ratio of M2 to M1 mRNAs) [5]: No effect
mRNAs down-regulated [6]: 829 mRNAs
mRNAs more cytoplasmic compared to control cells [6]: 98 mRNAs
mRNAs preferentially retained in the nucleus [6]: 96 mRNAs
mRNAs up-regulated [6]: 103 mRNAs
mRNAs with altered nuclear to cytoplasmic distribution [6]: 194 mRNAs
IC50 in plaque assay relative to NP assay (less) [7]: ~2 fold
viral replication (viral titer) [7]: inhibited
nuclear export of HA mRNA [8]: robustly inhibited
levels of the viral M1 and M2 proteins as well as NA and HA proteins [9]: decrease
IC50 in plaque assay relative to NP assay (less) [10]: ~2 fold
viral replication (viral titer) [10]: inhibited
24 h MTT CC10 ([4]; 24 h, concurrent with immunostaining): 5.839 µM
cell viability at concentrations inhibiting replication ([4]; MTT, 24 h or 48 h): did not significantly alter
nuclear retention of NS mRNA [11]: weak nuclear retention
total levels of the NS mRNA [11]: not altered
viral replication in primary human bronchial epithelial cells [12]: inhibited
NS1 to NS2 splicing [13]: slightly inhibited
nuclear export of viral M mRNA [14]: robustly inhibited
total M mRNA fluorescence intensity [14]: did not alter
cellular ATP levels as a surrogate for cytotoxicity [15]: no significant change
CC50 at 24 h ([2]; A549 cells): > 50 µM
GAPDH mRNA nuclear to cytoplasmic distribution [16]: not affected
total levels of cellular GAPDH mRNA [16]: slightly decreased
poly(A) RNA nuclear to cytoplasmic ratio [17]: slightly decreased
total levels of bulk cellular poly(A) RNA [17]: did not affect
pIC50 [3, 20]: 5.50
IC90 [3, 21]: 16.9 µM
viral replication (viral titer) ([18]; A549 cells, MOI 0.01, 24 h): inhibited
IC50 in plaque assay relative to NP assay (less) ([18]; A/Vietnam/1203/04, plaque assay vs NP assay): ~2 fold
cell viability of HBEC [19]: non-toxic

O=C(CSc1nc2ccccc2[nH]1)Nc1ccccn1 [Compound 11]
24 h MTT CC10 [1]: >50 µM
CC50 [2]: > 50 µM
pIC50 [3, 20]: < 4.30
IC90 [3, 21]: > 50 µM

Cc1ccc2[nH]c(SCC(=O)Nc3ccc(Br)cn3)nc2c1 [Compound 26]
24 h MTT CC10 [1]: 6.797 µM
CC50 [1]: 49.7 µM
pIC50 [3, 20]: 4.59
IC90 [3, 21]: > 50 µM

Cc1ccc(NC(=O)CSc2nc3ccccc3[nH]2)nc1 [Compound 24]
24 h MTT CC10 [1]: 5.552 µM
CC50 [1]: > 50 µM
pIC50 ([3]; read-out: WSN IC50, A549 cells, A/WSN/33 MOI 0.01, 24 h post infection, NP-positive cells): 5.06
IC90 ([3]; read-out: WSN IC90, A549 cells, A/WSN/33 MOI 0.01, 24 h post infection, NP-positive cells): 24.5 µM
